According to article PMC11356900, “Synthesis, Structural Properties and Biological Activities of Novel Hydrazones of 2-, 3-, 4-Iodobenzoic Acid” (Molecules, 2024):
≈ marks a conversion by molar mass, not a printed value.

Columns and labels:
[1] = system: Staphylococcus aureus ATCC 29213; assay: Broth microdilution MIC/MBC; conditions: ATCC29213
[2] = system: Pseudomonas aeruginosa ATCC 9027; assay: Broth microdilution MIC/MBC; conditions: ATCC9027
[3] = system: Staphylococcus aureus ATCC 25923; assay: Broth microdilution MIC/MBC
[4] = system: Bordetella bronchiseptica ATCC 4617; assay: Broth microdilution MIC/MBC; conditions: ATCC4617
[5] = system: Klebsiella pneumoniae ATCC 13883; assay: Broth microdilution MIC/MBC; conditions: ATCC13883
[6] = system: Candida glabrata ATCC 90030; assay: Broth microdilution MIC/MFC; assay type: cell-based; conditions: Nakaseomyces glabratus; for MIC: ATCC90030, read-out: MIC; for MFC: ATCC90030, read-out: MFC
From the text: (§1) Procedures of in vitro antimicrobial assays are described in Supplementary Materials.
(§2) 2. Microbiology – in vitro antimicrobial activity assays […]
(§3) using the broth microdilution method according to the European Committee on Antimicrobial Susceptibility Testing (EUCAST) and Clinical and Laboratory Standards Institute guidelines against a panel of reference and clinical or saprophytic strains of mi croorganisms, including the Gram-positive bacteria: Staphylococcus aureus ATCC 43300 (Methi-cillin Resistant S. aureus – MRSA), Staphylococcus aureus ATCC 29213 (Methicillin Susceptible S. aureus – MSSA), Staph-ylococcus epidermidis ATCC 12228, Micrococcus luteus ATCC 10240, Bacillus subtilis ATCC 6633 and Bacillus cereus ATCC 10876), Gram-negative bacteria: Bordetella bronchiseptica ATCC 4617, Escherichia coli ATCC 25922, Klebsiella pneumoniae ATCC 13883, Proteus mirabilis ATCC 12453, Salmonella typhimurium ATCC 14028 and Pseudomonas aeruginosa ATCC 9027, and fungi belonging to yeasts: Candida albicans ATCC 10231, Candida albicans ATCC 2091, Candida parapsilosis ATCC 22019, Candida glabrata ATCC 90030 and Candida krusei ATCC 14243. The microorganisms belonging to ATCC originated from American Type Culture Collection, routinely used for the evaluation of antimicrobials. All the used microbial cultures were first subcultured on nutrient agar or Sabouraud agar at 35°C for 18-24 h or 30°C for 24-48 h for bacteria […]
(§4) The surface of Mueller-Hinton agar (for bacteria) and RPMI 1640 with MOPS (for fungi) were inoculated with the suspensions of bacterial or fungal species. Microbial suspensions were prepared in sterile saline with an optical density of McFarland standard scale 0.5. The samples containing the compounds were dissolved in dimethyl sulfoxide (DMSO).
(§5) Furthermore, the bacterial and fungal suspensions put onto the Petri dishes with solid media containing 2 mg/mL of the tested compounds followed were incubated at 37°C for 24h and 30°C for 48h for bacteria and fungi, respectively.
(§6) The inhibition of microbial growth was estimated comparing with a control culture prepared without any tested sam- […]
(§7) antifungal compounds, respectively.
(§8) Subsequently, MIC (Minimal Inhibitory Concentration) of the compounds was examined by the microdilution broth method, using their two-fold dilutions in Mueller-Hinton broth (for bacteria) and RPMI 1640 broth with MOPS (for fungi) prepared in the 96-well polystyrene plates. The final concentrations of the compounds ranged from 1000 to 0.488 µg/mL. Microbial suspensions were prepared in 0.85% NaCl with an optical density of 0.5 McFarland standard. Next each bacterial or fungal suspension was added per each well containing broth and various concentrations of the exam-ined compounds. After incubation, the MIC was assessed spectrophotometrically as the lowest concentration of the […]
(§9) Appropriate DMSO, growth and sterile controls were carried out. The medium with no tested substances was used as a control The MBC (Minimal Bactericidal Concentration) and MFC (Minimal Fungicidal Concentration) are defined as the lowest concentration of the compounds that is required to kill a particular bacterial or fungal species. The MBC/MFC was determined by removing the culture used for the MIC determination from each well and spotted onto the appro-priate agar medium. The plates were incubated under appropriate conditions for bacteria and fungi. The lowest com-pounds concentration with no visible growth observed was assessed as a bactericidal/fungicidal concentration. All the experiments were repeated three times and the representative data are presented.
(§10) 1. European Committee for Antimicrobial Susceptibility Testing (EUCAST) Determination of minimum inhibitory con-centrations (MICs) of antibacterial agents by broth dilution. EUCAST discussion document E. Dis 5.1. Clin. Microbiol.
(§11) 2. Clinical and Laboratory Standards Institute. Reference method for broth dilution antifungal susceptibility testing of […]

[7] = system: Candida albicans ATCC 2091; assay: Broth microdilution MIC/MFC; assay type: cell-based; conditions: for MIC: ATCC2091, read-out: MIC
From the text: as §1, §2, §3, §4, §5, §6, §7, §8, §9, §10, §11

[8] = system: Candida albicans ATCC 10231; assay: Broth microdilution MIC/MFC; assay type: cell-based; conditions: for MIC: ATCC10231, read-out: MIC
From the text: as §1, §2, §3, §4, §5, §6, §7, §8, §9, §10, §11

[9] = system: Candida krusei ATCC 14243; assay: Broth microdilution MIC/MFC; assay type: cell-based; conditions: Pichia kudriavzevii; for MIC: ATCC14243, read-out: MIC
From the text: as §1, §2, §3, §4, §5, §6, §7, §8, §9, §10, §11

[10] = system: Candida parapsilosis ATCC 22019; assay: Broth microdilution MIC/MFC; assay type: cell-based; conditions: Lodderomyces parapsilosis; for MFC: ATCC22019, read-out: MFC; for MIC: ATCC22019, read-out: MIC
From the text: as §1, §2, §3, §4, §5, §6, §7, §8, §9, §10, §11

[11] = system: Micrococcus luteus ATCC 10240; assay: Broth microdilution MIC/MBC
[12] = system: Staphylococcus epidermidis ATCC 12228; assay: Broth microdilution MIC/MBC; conditions: ATCC12228
[13] = system: Salmonella typhimurium ATCC 14028; assay: Broth microdilution MIC/MBC; conditions: Salmonella enterica
[14] = system: Proteus mirabilis ATCC 12453; assay: Broth microdilution MIC/MBC; conditions: ATCC12453
[15] = system: Bacillus subtilis ATCC 6633; assay: Broth microdilution MIC/MBC; conditions: ATCC6633
[16] = system: Escherichia coli ATCC 25922; assay: Broth microdilution MIC/MBC; conditions: ATCC25922
[17] = system: Staphylococcus aureus ATCC 43300; assay: Broth microdilution MIC/MBC; conditions: ATCC43300 / MRSA
[18] = system: Bacillus cereus ATCC 10876; assay: Broth microdilution MIC/MBC
Gram-positive bacteria = assay: Broth microdilution, summary over reference Gram-positive bacteria; assay type: cell-based; conditions: reference Gram-positive bacteria / studied bacteria
From the text: as §1, §2, §3, §4, §5, §6, §7, §8, §9, §10, §11

Candida spp. = assay: Broth microdilution, summary over reference yeasts; assay type: cell-based; conditions: reference yeasts from Candida spp.
From the text: as §1, §2, §3, §4, §5, §6, §7, §8, §9, §10, §11

[19] = Staphylococcus aureus, ATCC25923

Row | SMILES | MIC [1] | MIC [2] | MIC [3, 19] | MIC [4] | MIC [5] | MIC [6] | MIC [7] | MIC [8] | MIC [9] | MIC [10] | MBC ([11]; Micrococcus luteus, ATCC10240) | MIC ([11]; Micrococcus luteus, ATCC10240) | MIC [12] | MIC [13] | MIC [14] | MIC [15] | melting point | MIC [16] | MIC [17] | MIC ([18]; Bacillus cereus, ATCC10876) | other results
1 | NNC(=O)c1ccc(I)cc1 [Compound 6, 4-iodobenzohydrazide] | > 1000 µg/mL | > 1000 µg/mL | > 1000 µg/mL | > 1000 µg/mL | > 1000 µg/mL | > 1000 µg/mL | > 1000 µg/mL | > 1000 µg/mL | > 1000 µg/mL | 250 µg/mL (≈ 954 µM) | > 1000 µg/mL | 500 µg/mL (≈ 1910 µM) | 1000 µg/mL (≈ 3820 µM) | > 1000 µg/mL | > 1000 µg/mL | 1000 µg/mL (≈ 3820 µM) | 161 to 162 °C | > 1000 µg/mL | > 1000 µg/mL | > 1000 µg/mL | MFC [10]: > 1000 µg/mL; MBC [12]: > 1000 µg/mL; MBC [15]: > 1000 µg/mL
2 | O=C(N/N=C/c1cc(Cl)cc(Cl)c1O)c1ccc(I)cc1 [Compound 24, N-[(3,5-dichloro-2-hydroxyphenyl)methylidene]-4-iodobenzohydrazide] | 1000 µg/mL (≈ 2300 µM) | > 1000 µg/mL | > 1000 µg/mL | > 1000 µg/mL | > 1000 µg/mL | 250 µg/mL (≈ 575 µM) | 1000 µg/mL (≈ 2300 µM) | 500 µg/mL (≈ 1150 µM) | > 1000 µg/mL | 1000 µg/mL (≈ 2300 µM) | > 1000 µg/mL | 500 µg/mL (≈ 1150 µM) | > 1000 µg/mL | > 1000 µg/mL | > 1000 µg/mL | 500 µg/mL (≈ 1150 µM) | 281 to 284 °C | > 1000 µg/mL | > 1000 µg/mL | > 1000 µg/mL | MBC [1]: > 2000 µg/mL; MFC [6]: > 1000 µg/mL; MFC ([7]; ATCC2091, read-out: MFC): > 1000 µg/mL; MFC ([8]; ATCC10231, read-out: MFC): > 1000 µg/mL; MFC [10]: > 1000 µg/mL; MBC [15]: > 1000 µg/mL
3 | CCOc1cccc(/C=N/NC(=O)c2ccc(I)cc2)c1O [Compound 25, N-[(3-ethoxy-2-hydroxyphenyl)methylidene]-4-iodobenzohydrazide] | > 1000 µg/mL | > 1000 µg/mL | > 1000 µg/mL | > 1000 µg/mL | > 1000 µg/mL | > 1000 µg/mL | > 1000 µg/mL | > 1000 µg/mL | > 1000 µg/mL | 250 µg/mL (≈ 609 µM) | 62.5 µg/mL (≈ 152 µM) | 31.2 µg/mL (≈ 76.2 µM) | 1000 µg/mL (≈ 2440 µM) | > 1000 µg/mL | > 1000 µg/mL | > 1000 µg/mL | 200 to 207 °C | > 1000 µg/mL | > 1000 µg/mL | > 1000 µg/mL | MFC [10]: > 1000 µg/mL; MBC [12]: > 1000 µg/mL
4 | O=C1CN(/N=C/c2ccc([N+](=O)[O-])o2)C(=O)N1 [NIT, nitrofurantoin, reference compound] | – | – | 15.6 µg/mL (≈ 65.6 µM) | 125 µg/mL (≈ 525 µM) | 15.6 µg/mL (≈ 65.6 µM) | – | – | – | – | – | 62.5 µg/mL (≈ 262 µM) | 62.5 µg/mL (≈ 262 µM) | 3.91 µg/mL (≈ 16.4 µM) | 31.2 µg/mL (≈ 131 µM) | 62.5 µg/mL (≈ 262 µM) | 3.91 µg/mL (≈ 16.4 µM) | – | 7.81 µg/mL (≈ 32.8 µM) | 7.81 µg/mL (≈ 32.8 µM) | 7.81 µg/mL (≈ 32.8 µM) | MIC ([3]; Staphylococcus aureus ATCC 25923): 15.62 (15.62) µg/mL; MBC [3, 19]: 15.6 µg/mL (≈ 65.6 µM); MIC ([11]; Micrococcus luteus ATCC 10240): 62.5 (62.5) µg/mL; MBC [12]: 7.81 µg/mL (≈ 32.8 µM); MBC [15]: 3.91 µg/mL (≈ 16.4 µM); MBC ([18]; Bacillus cereus ATCC 10876): 15.62 µg/mL (≈ 65.6 µM); MBC ([18]; Bacillus cereus, ATCC10876): 15.6 µg/mL (≈ 65.6 µM)
5 | CCOc1cccc(/C=N/NC(=O)c2ccccc2I)c1O [Compound 10, N-[(3-ethoxy-2-hydroxyphenyl)methylidene]-2-iodobenzohydrazide] | > 1000 µg/mL | – | > 1000 µg/mL | – | – | 1000 µg/mL (≈ 2440 µM) | > 1000 µg/mL | > 1000 µg/mL | 1000 µg/mL (≈ 2440 µM) | > 1000 µg/mL | – | > 1000 µg/mL | > 1000 µg/mL | – | – | > 1000 µg/mL | 167 to 170 °C | – | > 1000 µg/mL | > 1000 µg/mL | antibacterial activity in words (Gram-positive bacteria): no antimicrobial effect; antifungal activity in words (Candida spp.): mild activity or were inactive; MFC [6]: > 1000 µg/mL; MFC ([9]; ATCC14243, read-out: MFC): > 1000 µg/mL
